Measured values from BigSolDB 2.1.

CC(CCc1ccccc1)NCC(O)c1ccc(O)c(C(N)=O)c1.Cl (stereo unspecified)
solubility (mole fraction)
Settings | in ethanol | in ethyl acetate | in isobutanol | in isopropanol | in methanol | in n-butanol | in n-propanol | in sec-butanol | in water
288.15 K | 0.00124 | 0.000116 | 0.000136 | 0.00011 | 0.00883 | 0.000385 | 0.000478 | 0.000167 | 0.000711
293.15 K | 0.00145 | 0.000163 | 0.000184 | 0.000164 | 0.0101 | 0.000467 | 0.00058 | 0.000211 | 0.000898
298.15 K | 0.0017 | 0.000237 | 0.000257 | 0.000253 | 0.0114 | 0.000565 | 0.00071 | 0.000278 | 0.00118
303.15 K | 0.00198 | 0.000302 | 0.000326 | 0.000355 | 0.013 | 0.000675 | 0.000841 | 0.000336 | 0.00145
308.15 K | 0.00222 | 0.000406 | 0.000429 | 0.000492 | 0.0144 | 0.000808 | 0.001 | 0.000411 | 0.00172
313.15 K | 0.00253 | 0.000531 | 0.00056 | 0.000675 | 0.0162 | 0.000967 | 0.00121 | 0.000515 | 0.00212
318.15 K | 0.00288 | 0.000689 | 0.000729 | 0.000985 | 0.0182 | 0.00116 | 0.00144 | 0.000643 | 0.00266
323.15 K | 0.0035 | 0.000823 | 0.000981 | 0.0014 | 0.0204 | 0.00136 | 0.00173 | 0.000804 | 0.00337
328.15 K | 0.00395 | 0.00109 | 0.00126 | 0.00194 | 0.0228 | 0.00163 | 0.00194 | 0.000983 | 0.00409
